Test results from article PMC5218480 (PLoS ONE, 2017).

Test system: MV-4-11 cells
Test: Gene expression microarray analysis (Affymetrix PrimeView) and GSEA
Type: cell-based, human
Parameters: RFU PODN (11730768_x_at) / Fold change /veh PODN (11730768_x_at) / RFU LINC00158 (11744669_a_at) / Fold change /veh LINC00158 (11744669_a_at) / RFU DUSP10 (11751237_a_at) / Fold change /veh DUSP10 (11751237_a_at) / RFU ID3 (11757404_x_at) / Fold change /veh ID3 (11757404_x_at) / RFU PLEKHG5 (11737974_s_at) / Fold change /veh PLEKHG5 (11737974_s_at) / RFU LRRC4B (11730491_at) / Fold change /veh LRRC4B (11730491_at) / RFU GIMAP4 (11747438_a_at) / Fold change /veh GIMAP4 (11747438_a_at) / RFU KRT8 (11758183_x_at) / Fold change /veh KRT8 (11758183_x_at) / RFU CNN1 (11734310_a_at) / Fold change /veh CNN1 (11734310_a_at) / RFU VPS37D (11726825_at) / Fold change /veh VPS37D (11726825_at) / RFU C10orf10 (11716522_x_at) / Fold change /veh C10orf10 (11716522_x_at) / RFU KIR2DL2 /// KIR2DL4 /// KIR2DL5A /// KIR2DL5B /// KIR2DS1 /// KIR2DS2 /// KIR2DS3 /// KIR2DS4 /// KIR3DL3 /// KIR3DL3 /// KIR3DS1 (11738374_at) / Fold change /veh KIR2DL2 /// KIR2DL4 /// KIR2DL5A /// KIR2DL5B /// KIR2DS1 /// KIR2DS2 /// KIR2DS3 /// KIR2DS4 /// KIR3DL3 /// KIR3DL3 /// KIR3DS1 (11738374_at) / RFU C1QL1 (11718748_at) / Fold change /veh C1QL1 (11718748_at) / RFU TMPRSS4 (11747572_a_at) / Fold change /veh TMPRSS4 (11747572_a_at) / RFU HAMP (11756126_x_at) / Fold change /veh HAMP (11756126_x_at) / RFU RNFT2 (11725882_a_at) / Fold change /veh RNFT2 (11725882_a_at) / RFU NR4A2 (11747474_a_at) / Fold change /veh NR4A2 (11747474_a_at) / RFU ABCC12 (11746883_a_at) / Fold change /veh ABCC12 (11746883_a_at) / RFU TMEM136 (11760407_x_at) / Fold change /veh TMEM136 (11760407_x_at) / RFU CLDN22 /// WWC2 (11732394_at) / Fold change /veh CLDN22 /// WWC2 (11732394_at) / RFU HLA-DPB1 (11760878_x_at) / Fold change /veh HLA-DPB1 (11760878_x_at) / RFU SPINT1 (11716480_a_at) / Fold change /veh SPINT1 (11716480_a_at) / RFU GAP43 (11754022_s_at) / Fold change /veh GAP43 (11754022_s_at) / RFU A4GNT (11735810_at) / Fold change /veh A4GNT (11735810_at) / RFU PRB3 (11715151_x_at) / Fold change /veh PRB3 (11715151_x_at) / RFU TUBB4B (11761932_at) / Fold change /veh TUBB4B (11761932_at) / RFU CAPN14 (11732068_a_at) / Fold change /veh CAPN14 (11732068_a_at) / RFU TMCC2 (11721928_a_at) / Fold change /veh TMCC2 (11721928_a_at) / RFU IRGQ (11745062_a_at) / Fold change /veh IRGQ (11745062_a_at) / RFU FAM174B (11720279_a_at) / Fold change /veh FAM174B (11720279_a_at) / RFU TMPRSS4 (11748680_a_at) / Fold change /veh TMPRSS4 (11748680_a_at) / RFU FAM212B (11763350_a_at) / Fold change /veh FAM212B (11763350_a_at) / RFU PLEKHG5 (11743358_a_at) / Fold change /veh PLEKHG5 (11743358_a_at) / RFU ZSCAN30 (11745921_a_at) / Fold change /veh ZSCAN30 (11745921_a_at) / RFU CMKLR1 (11741424_a_at) / Fold change /veh CMKLR1 (11741424_a_at) / RFU LOC101060620 /// MAPK8IP1 (11723275_at) / Fold change /veh LOC101060620 /// MAPK8IP1 (11723275_at) / RFU SPTSSB (11747773_x_at) / Fold change /veh SPTSSB (11747773_x_at) / RFU PRSS12 (11739890_at) / Fold change /veh PRSS12 (11739890_at) / RFU BIN1 (11741810_x_at) / Fold change /veh BIN1 (11741810_x_at) / RFU WNT11 (11732464_a_at) / Fold change /veh WNT11 (11732464_a_at) / RFU C10orf10 (11716521_a_at) / Fold change /veh C10orf10 (11716521_a_at) / RFU C5orf56 (11738089_at) / Fold change /veh C5orf56 (11738089_at) / RFU CYB561 (11721691_x_at) / Fold change /veh CYB561 (11721691_x_at) / RFU ANKRD19P (11752326_a_at) / Fold change /veh ANKRD19P (11752326_a_at) / RFU OR2T12 /// OR2T33 /// OR2T8 (11738714_s_at) / Fold change /veh OR2T12 /// OR2T33 /// OR2T8 (11738714_s_at) / RFU VCAN (11748164_a_at) / Fold change /veh VCAN (11748164_a_at) / RFU JSRP1 (11732532_at) / Fold change /veh JSRP1 (11732532_at) / RFU KRTAP10-11 (11738290_x_at) / Fold change /veh KRTAP10-11 (11738290_x_at) / RFU MYO3A (11730013_a_at) / Fold change /veh MYO3A (11730013_a_at) / RFU EBF3 (11725865_a_at) / Fold change /veh EBF3 (11725865_a_at) / RFU CAMK2N1 (11719241_x_at) / Fold change /veh CAMK2N1 (11719241_x_at) / RFU C5orf56 (11738088_a_at) / Fold change /veh C5orf56 (11738088_a_at) / RFU OLFML3 (11715873_a_at) / Fold change /veh OLFML3 (11715873_a_at) / RFU LOC100653217 /// NTM (11731650_a_at) / Fold change /veh LOC100653217 /// NTM (11731650_a_at) / RFU MAPK11 (11762145_a_at) / Fold change /veh MAPK11 (11762145_a_at) / RFU FIZ1 (11724087_x_at) / Fold change /veh FIZ1 (11724087_x_at) / RFU OASL (11726364_x_at) / Fold change /veh OASL (11726364_x_at) / RFU SOX15 (11748057_x_at) / Fold change /veh SOX15 (11748057_x_at) / RFU CD79A (11719716_a_at) / Fold change /veh CD79A (11719716_a_at) / RFU HIST1H1D (11736915_at) / Fold change /veh HIST1H1D (11736915_at) / RFU CASKIN2 (11723855_a_at) / Fold change /veh CASKIN2 (11723855_a_at) / RFU LOC730098 (11760151_x_at) / Fold change /veh LOC730098 (11760151_x_at) / RFU OR4N2 (11742367_at) / Fold change /veh OR4N2 (11742367_at) / RFU PRRT2 (11749266_a_at) / Fold change /veh PRRT2 (11749266_a_at) / RFU SNX32 (11753110_a_at) / Fold change /veh SNX32 (11753110_a_at) / RFU CDHR5 (11726645_a_at) / Fold change /veh CDHR5 (11726645_a_at) / RFU RCAN1 (11760418_a_at) / Fold change /veh RCAN1 (11760418_a_at) / RFU FAM167A (11723789_a_at) / Fold change /veh FAM167A (11723789_a_at) / RFU FAM26E (11764081_at) / Fold change /veh FAM26E (11764081_at) / RFU ISYNA1 (11749810_s_at) / Fold change /veh ISYNA1 (11749810_s_at) / RFU ACY1 (11761880_at) / Fold change /veh ACY1 (11761880_at) / RFU 11764098_at / Fold change /veh 11764098_at / RFU SAMD14 (11745864_x_at) / Fold change /veh SAMD14 (11745864_x_at) / RFU NPB (11741838_a_at) / Fold change /veh NPB (11741838_a_at) / RFU TMPRSS6 (11731388_a_at) / Fold change /veh TMPRSS6 (11731388_a_at) / RFU KRTAP10-2 (11738614_at) / Fold change /veh KRTAP10-2 (11738614_at) / RFU ARHGAP8 /// PRR5-ARHGAP8 (11727945_x_at) / Fold change /veh ARHGAP8 /// PRR5-ARHGAP8 (11727945_x_at) / RFU KRTAP5-7 /// NADSYN1 (11734609_at) / Fold change /veh KRTAP5-7 /// NADSYN1 (11734609_at) / RFU RASL12 (11751679_a_at) / Fold change /veh RASL12 (11751679_a_at) / RFU CDKN2B (11736163_a_at) / Fold change /veh CDKN2B (11736163_a_at) / RFU PRF1 (11729649_at) / Fold change /veh PRF1 (11729649_at) / RFU, ZNF638 /// ZNF638-IT1 / Fold change vs veh, ZNF638 /// ZNF638-IT1 / RFU, PANK3 / Fold change vs veh, PANK3 / RFU, SH3YL1 / Fold change vs veh, SH3YL1 / RFU, ZEB2 / Fold change vs veh, ZEB2 / RFU, NRIP1 / Fold change vs veh, NRIP1 / RFU, PTTG1IP / Fold change vs veh, PTTG1IP / RFU, CAPN2 / Fold change vs veh, CAPN2 / RFU, MED14 / Fold change vs veh, MED14 / RFU, SNORA58 / Fold change vs veh, SNORA58 / RFU, C1orf63 / Fold change vs veh, C1orf63 / RFU, LRRFIP1 / Fold change vs veh, LRRFIP1 / RFU, NDUFAF7 / Fold change vs veh, NDUFAF7 / RFU, SLC12A2 / Fold change vs veh, SLC12A2 / RFU, IBTK / Fold change vs veh, IBTK / RFU, ESF1 / Fold change vs veh, ESF1 / Fold change vs veh, TMEM50B / RFU, TAOK1 / Fold change vs veh, TAOK1 / RFU, ACBD3 / Fold change vs veh, ACBD3 / RFU, TMA16 / Fold change vs veh, TMA16 / RFU, RWDD3 / Fold change vs veh, RWDD3 / RFU, BCAT1 / Fold change vs veh, BCAT1 / RFU, EDEM3 / Fold change vs veh, EDEM3 / RFU, TMEM33 / Fold change vs veh, TMEM33 / RFU, WDR75 / Fold change vs veh, WDR75 / RFU, AHCTF1 / Fold change vs veh, AHCTF1 / RFU, TFRC / Fold change vs veh, TFRC / RFU, ZDHHC17 / Fold change vs veh, ZDHHC17 / RFU, NOM1 / Fold change vs veh, NOM1 / RFU, ARL8B / Fold change vs veh, ARL8B / RFU, ZBTB11 / Fold change vs veh, ZBTB11 / RFU, TAMM41 / Fold change vs veh, TAMM41 / RFU, KIAA1704 /// LOC100996395 / Fold change vs veh, KIAA1704 /// LOC100996395 / RFU, ING1 / Fold change vs veh, ING1 / RFU, TRMT61B / Fold change vs veh, TRMT61B / RFU, FUBP3 / Fold change vs veh, FUBP3 / RFU, TP53 / Fold change vs veh, TP53 / RFU, TNKS2 / Fold change vs veh, TNKS2 / RFU, ZFP14 / Fold change vs veh, ZFP14 / RFU, ACTR2 / Fold change vs veh, ACTR2 / RFU, PPP3R1 / Fold change vs veh, PPP3R1 / RFU, PIK3R1 / Fold change vs veh, PIK3R1 / RFU, HNRNPA1 / Fold change vs veh, HNRNPA1 / RFU, RNF170 / Fold change vs veh, RNF170 / RFU, ZNF28 / Fold change vs veh, ZNF28 / RFU, RNGTT / Fold change vs veh, RNGTT / RFU, OGT / Fold change vs veh, OGT / RFU, BRD1 / Fold change vs veh, BRD1 / RFU, MARS / Fold change vs veh, MARS / RFU, ZNF655 / Fold change vs veh, ZNF655 / RFU, FAHD1 / Fold change vs veh, FAHD1 / RFU, BDP1 / Fold change vs veh, BDP1 / RFU, LRRCC1 / Fold change vs veh, LRRCC1 / RFU, ARID1A / Fold change vs veh, ARID1A / RFU, ZNF146 / Fold change vs veh, ZNF146 / RFU, ZNF330 / Fold change vs veh, ZNF330 / RFU, GPN3 / Fold change vs veh, GPN3 / RFU, C9orf123 / Fold change vs veh, C9orf123 / RFU, N4BP2L2 / Fold change vs veh, N4BP2L2 / RFU, ARFIP1 / Fold change vs veh, ARFIP1 / RFU, FAM179B / Fold change vs veh, FAM179B / RFU, BCL10 / Fold change vs veh, BCL10 / RFU, UHRF1BP1L / Fold change vs veh, UHRF1BP1L / RFU, BET1 / Fold change vs veh, BET1 / RFU, CNOT2 / Fold change vs veh, CNOT2 / RFU, ZNF268 / Fold change vs veh, ZNF268 / Fold change vs veh, ZNF507 / RFU, DGCR2 / Fold change vs veh, DGCR2 / RFU, WDSUB1 / Fold change vs veh, WDSUB1 / Fold change vs veh, HSP90B1 /// MIR3652 / RFU, ADSS / Fold change vs veh, ADSS / RFU, GK / Fold change vs veh, GK / RFU, ZNF148 / Fold change vs veh, ZNF148 / RFU, TAF9 / Fold change vs veh, TAF9 / RFU, SLC1A5 / Fold change vs veh, SLC1A5 / RFU, SLMO2 / Fold change vs veh, SLMO2 / RFU, ABCC4 / Fold change vs veh, ABCC4 / RFU, LOC101060439 /// RAP1B / Fold change vs veh, LOC101060439 /// RAP1B / RFU, RFX7 / Fold change vs veh, RFX7 / RFU, GTPBP10 / Fold change vs veh, GTPBP10 / RFU, CNEP1R1 / Fold change vs veh, CNEP1R1 / RFU, BIVM-ERCC5 /// ERCC5 / Fold change vs veh, BIVM-ERCC5 /// ERCC5 / RFU, ILF3 / Fold change vs veh, ILF3 / RFU 11762660_at / Fold change /veh 11762660_at / RFU VCAN (11757783_s_at) / Fold change /veh VCAN (11757783_s_at) / RFU DDX43 (11728927_at) / Fold change /veh DDX43 (11728927_at) / RFU KRT8 (11758188_x_at) / Fold change /veh KRT8 (11758188_x_at) / RFU NKD1 (11759106_at) / Fold change /veh NKD1 (11759106_at) / RFU SRD5A1 (11742802_a_at) / Fold change /veh SRD5A1 (11742802_a_at) / RFU TPSAB1 /// TPSB2 (11721975_s_at) / Fold change /veh TPSAB1 /// TPSB2 (11721975_s_at) / RFU GSTM3 (11746129_a_at) / Fold change /veh GSTM3 (11746129_a_at) / RFU IL23R (11737362_x_at) / Fold change /veh IL23R (11737362_x_at) / RFU TMEM51 (11727254_a_at) / Fold change /veh TMEM51 (11727254_a_at) / RFU PIWIL2 (11732686_x_at) / Fold change /veh PIWIL2 (11732686_x_at) / RFU ORM1 (11744905_x_at) / Fold change /veh ORM1 (11744905_x_at) / RFU CCDC152 (11743942_at) / Fold change /veh CCDC152 (11743942_at) / RFU ECM1 (11717891_a_at) / Fold change /veh ECM1 (11717891_a_at) / RFU IL23R (11748794_a_at) / Fold change /veh IL23R (11748794_a_at) / RFU TNFAIP8L3 (11732012_x_at) / Fold change /veh TNFAIP8L3 (11732012_x_at) / RFU MBOAT4 (11741988_at) / Fold change /veh MBOAT4 (11741988_at) / RFU 11764193_at / Fold change /veh 11764193_at / RFU TMEM53 (11763286_at) / Fold change /veh TMEM53 (11763286_at) / RFU MAGEB2 (11727129_at) / Fold change /veh MAGEB2 (11727129_at) / RFU TMEM200A (11744735_a_at) / Fold change /veh TMEM200A (11744735_a_at) / RFU CCDC152 (11751479_a_at) / Fold change /veh CCDC152 (11751479_a_at) / RFU FAM211A (11726209_a_at) / Fold change /veh FAM211A (11726209_a_at) / RFU RGS16 (11746705_a_at) / Fold change /veh RGS16 (11746705_a_at) / RFU VCAN (11755009_s_at) / Fold change /veh VCAN (11755009_s_at) / RFU RHOB (11743442_s_at) / Fold change /veh RHOB (11743442_s_at) / RFU RGS16 (11720943_a_at) / Fold change /veh RGS16 (11720943_a_at) / RFU RGS16 (11720944_at) / Fold change /veh RGS16 (11720944_at) / RFU, VPS4B / Fold change vs veh, VPS4B / RFU, CREB1 / Fold change vs veh, CREB1 / RFU, DNAJC13 / Fold change vs veh, DNAJC13 / RFU, GNAQ / Fold change vs veh, GNAQ / RFU, CDK5R1 / Fold change vs veh, CDK5R1 / RFU, ZRANB3 / Fold change vs veh, ZRANB3 / RFU, CUL4A / Fold change vs veh, CUL4A / RFU, CCNY / Fold change vs veh, CCNY / RFU, UFL1 / Fold change vs veh, UFL1 / RFU, COG3 / Fold change vs veh, COG3 / RFU, DIAPH2 / Fold change vs veh, DIAPH2 / RFU, SKA2 / Fold change vs veh, SKA2 / RFU, AFF3 / Fold change vs veh, AFF3 / RFU, LMF1 / Fold change vs veh, LMF1 / RFU, IPO11 / Fold change vs veh, IPO11 / RFU, DFFB / Fold change vs veh, DFFB / RFU, FOXP1 / Fold change vs veh, FOXP1 / RFU, CARD8 / Fold change vs veh, CARD8 / RFU, STRN3 / Fold change vs veh, STRN3 / RFU, ADK / Fold change vs veh, ADK / RFU, RASSF2 / Fold change vs veh, RASSF2 / RFU, WIPF1 / Fold change vs veh, WIPF1 / RFU, LARP1B / Fold change vs veh, LARP1B / RFU, RASA1 / Fold change vs veh, RASA1 / RFU, RB1 / Fold change vs veh, RB1 / RFU, PPFIA1 / Fold change vs veh, PPFIA1 / RFU, MAT2A / Fold change vs veh, MAT2A / RFU, CCT5 / Fold change vs veh, CCT5 / RFU, WDR92 / Fold change vs veh, WDR92 / RFU, CUX1 / Fold change vs veh, CUX1 / RFU, TTC7A / Fold change vs veh, TTC7A / RFU, TMEM135 / Fold change vs veh, TMEM135 / RFU, DEPTOR / Fold change vs veh, DEPTOR / RFU, CPM / Fold change vs veh, CPM / RFU, DNAJB6 / Fold change vs veh, DNAJB6 / RFU, CACNA2D3 / Fold change vs veh, CACNA2D3 / RFU, DTX4 / Fold change vs veh, DTX4 / RFU, TFCP2 / Fold change vs veh, TFCP2 / RFU, GMCL1 /// GMCL1P1 / Fold change vs veh, GMCL1 /// GMCL1P1 / RFU, AEBP2 / Fold change vs veh, AEBP2 / RFU, SNHG1 /// SNORD22 /// SNORD25 /// SNORD26 /// SNORD27 /// SNORD28 /// SNORD29 /// SNORD31 / Fold change vs veh, SNHG1 /// SNORD22 /// SNORD25 /// SNORD26 /// SNORD27 /// SNORD28 /// SNORD29 /// SNORD31 / Fold change (Aza/veh), C12orf56 (ProbeSet 11735607_a_at) / Fold change (ACY-1035/veh), C12orf56 (ProbeSet 11735607_a_at) / Fold change (Aza/veh), FGFR1OP (ProbeSet 11751329_s_at) / Fold change (ACY-1035/veh), FGFR1OP (ProbeSet 11751329_s_at) / Fold change (Aza/veh), VPS36 (ProbeSet 11739960_a_at) / Fold change (ACY-1035/veh), VPS36 (ProbeSet 11739960_a_at) / RFU SYPL1 (11715823_x_at) / Fold change /veh SYPL1 (11715823_x_at) / RFU IGFBP7 (11715501_s_at) / Fold change /veh IGFBP7 (11715501_s_at) / RFU REEP3 (11722064_at) / Fold change /veh REEP3 (11722064_at) / RFU IGLL1 (11728026_x_at) / Fold change /veh IGLL1 (11728026_x_at): dose or concentration left out as unconfirmed
Settings: ProbeSet 11741311_a_at; LIST B

Nc1ncn([C@@H]2O[C@H](CO)[C@@H](O)[C@H]2O)c(=O)n1 [azacitidine]
RFU, ZNF655: 32.83 RFU
